Laboratory results from ChEMBL document CHEMBL1201862, “PubChem BioAssay data set” (2004).
One block for each compound: values may come before it. Calls of active or inactive are those of the source.

Tests used:
[1] = target: T1, Sentrin-specific protease 6 (Homo sapiens, UniProt Q9GZR1); type: functional;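 also: Luminescence-based dose-response confirmatory assay of SENP6 inhibition, following up an ultra-high-throughput screen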
T1 sequence (Q9GZR1 whole entry): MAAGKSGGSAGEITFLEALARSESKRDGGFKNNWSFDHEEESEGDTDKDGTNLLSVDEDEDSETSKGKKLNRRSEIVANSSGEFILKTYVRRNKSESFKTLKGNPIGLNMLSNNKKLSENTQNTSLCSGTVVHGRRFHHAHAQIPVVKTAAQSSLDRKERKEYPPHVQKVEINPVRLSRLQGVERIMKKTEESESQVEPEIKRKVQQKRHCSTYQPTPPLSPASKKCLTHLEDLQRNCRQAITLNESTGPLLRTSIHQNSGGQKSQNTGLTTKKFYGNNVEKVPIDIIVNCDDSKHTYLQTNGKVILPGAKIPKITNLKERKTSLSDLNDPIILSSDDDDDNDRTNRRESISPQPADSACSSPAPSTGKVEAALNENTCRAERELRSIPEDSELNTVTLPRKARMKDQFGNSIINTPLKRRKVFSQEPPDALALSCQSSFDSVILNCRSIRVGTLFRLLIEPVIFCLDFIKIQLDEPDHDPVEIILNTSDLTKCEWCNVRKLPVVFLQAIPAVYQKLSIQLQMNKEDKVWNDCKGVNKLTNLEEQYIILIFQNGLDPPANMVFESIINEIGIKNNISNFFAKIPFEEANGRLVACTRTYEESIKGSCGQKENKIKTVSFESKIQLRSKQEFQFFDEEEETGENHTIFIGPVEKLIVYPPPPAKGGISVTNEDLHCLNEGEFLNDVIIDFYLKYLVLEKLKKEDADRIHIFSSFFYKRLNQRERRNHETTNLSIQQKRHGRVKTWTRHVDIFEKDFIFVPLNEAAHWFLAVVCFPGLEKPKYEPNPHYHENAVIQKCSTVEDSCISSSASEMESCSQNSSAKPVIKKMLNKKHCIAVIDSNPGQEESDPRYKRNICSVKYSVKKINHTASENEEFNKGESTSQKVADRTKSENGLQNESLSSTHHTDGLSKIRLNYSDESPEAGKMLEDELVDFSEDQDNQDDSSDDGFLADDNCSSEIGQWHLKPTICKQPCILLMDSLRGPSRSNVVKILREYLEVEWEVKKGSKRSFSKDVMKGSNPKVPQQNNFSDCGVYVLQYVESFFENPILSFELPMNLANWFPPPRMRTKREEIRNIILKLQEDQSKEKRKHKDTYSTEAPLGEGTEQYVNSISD

[2] = target: T2, Caspase-3 (Homo sapiens, UniProt P42574); type: functional;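 also: Dose-response selectivity test against caspase-3 for candidate inhibitors of sentrin-specific proteases (SENPs)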
T2 sequence (P42574 whole entry): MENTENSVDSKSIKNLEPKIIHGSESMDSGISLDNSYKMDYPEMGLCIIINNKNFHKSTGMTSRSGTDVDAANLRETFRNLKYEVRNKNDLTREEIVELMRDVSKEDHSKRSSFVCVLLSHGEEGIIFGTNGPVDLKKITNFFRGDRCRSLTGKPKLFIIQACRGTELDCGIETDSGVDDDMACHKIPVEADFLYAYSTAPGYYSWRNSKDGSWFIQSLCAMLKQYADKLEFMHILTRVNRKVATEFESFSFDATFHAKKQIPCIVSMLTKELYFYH

[3] = target: Tyrosine-protein kinase Lyn (Homo sapiens, UniProt P07948); type: functional;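 also: lyn as one member of a kinase panel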
[4] = target: RAC-alpha serine/threonine-protein kinase (Homo sapiens, UniProt P31749); type: functional;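 also: AKT1 affinity measured as one member of a kinome-wide kinase profiling panel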
[5] = target: Cyclin-dependent kinase 5 (Homo sapiens, UniProt Q00535); type: functional;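 also: CDK5 measured as one member of a kinase profiling panel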
[6] = target: Serine/threonine-protein kinase pim-1 (Homo sapiens, UniProt P11309); type: functional
[7] = target: 3-phosphoinositide-dependent protein kinase 1 (Homo sapiens, UniProt O15530); type: functional;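 also: value comes from the Navigating the Kinome panel, PDPK1 member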
[8] = target: Fibroblast growth factor receptor 1 (Homo sapiens, UniProt P11362); type: functional
[9] = target: Glycogen synthase kinase-3 alpha (Homo sapiens, UniProt P49840); type: functional;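 also: GSK3A result taken from a broad kinome-wide kinase panel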
[10] = target: RAC-gamma serine/threonine-protein kinase (Homo sapiens, UniProt Q9Y243); type: functional
[11] = target: Non-receptor tyrosine-protein kinase TYK2 (Homo sapiens, UniProt P29597); type: functional
[12] = target: T3, Insulin-degrading enzyme (Homo sapiens, UniProt P14735); experiment: activators of endogenous IDE in HEK cells, dose response, cell-based, fluorescence polarization (AID 588439); type: functional
T3 sequence (P14735 whole entry): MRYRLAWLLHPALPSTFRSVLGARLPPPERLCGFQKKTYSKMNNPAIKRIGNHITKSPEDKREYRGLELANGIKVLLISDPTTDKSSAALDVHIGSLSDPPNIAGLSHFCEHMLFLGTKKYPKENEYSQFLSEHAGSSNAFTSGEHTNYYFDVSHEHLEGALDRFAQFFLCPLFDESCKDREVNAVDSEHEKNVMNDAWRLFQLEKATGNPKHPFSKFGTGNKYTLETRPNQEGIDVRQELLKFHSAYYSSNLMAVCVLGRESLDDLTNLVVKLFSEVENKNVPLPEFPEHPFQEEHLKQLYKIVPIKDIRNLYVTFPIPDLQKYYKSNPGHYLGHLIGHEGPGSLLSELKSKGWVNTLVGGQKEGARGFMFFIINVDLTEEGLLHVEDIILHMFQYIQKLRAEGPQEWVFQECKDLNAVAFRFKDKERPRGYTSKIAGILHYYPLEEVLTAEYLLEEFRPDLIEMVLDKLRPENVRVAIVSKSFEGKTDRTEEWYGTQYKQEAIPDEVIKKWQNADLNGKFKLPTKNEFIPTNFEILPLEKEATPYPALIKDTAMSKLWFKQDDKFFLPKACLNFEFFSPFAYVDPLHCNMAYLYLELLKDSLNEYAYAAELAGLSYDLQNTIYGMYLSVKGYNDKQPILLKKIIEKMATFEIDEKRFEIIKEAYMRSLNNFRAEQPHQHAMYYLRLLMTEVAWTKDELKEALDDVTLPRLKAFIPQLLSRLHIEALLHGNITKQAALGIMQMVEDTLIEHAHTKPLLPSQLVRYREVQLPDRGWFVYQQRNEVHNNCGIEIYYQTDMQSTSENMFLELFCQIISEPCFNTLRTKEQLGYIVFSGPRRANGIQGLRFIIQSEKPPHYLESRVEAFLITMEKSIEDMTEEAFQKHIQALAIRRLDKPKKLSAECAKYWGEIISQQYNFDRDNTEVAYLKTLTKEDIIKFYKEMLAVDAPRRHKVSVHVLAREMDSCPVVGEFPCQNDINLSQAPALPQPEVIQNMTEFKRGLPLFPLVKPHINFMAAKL

[13] = system: HEK293; experiment: HEK cell cytotoxicity by LDH release, dose response, cytotoxicity control for IDE activator project, fluorescence, HEK cells (AID 588440); type: functional, cell-based; conditions: Homo sapiens;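 also: cytotoxicity by LDH release measuring loss of membrane integrity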

Sequence of Glycogen synthase kinase-3 alpha (P49840 whole entry): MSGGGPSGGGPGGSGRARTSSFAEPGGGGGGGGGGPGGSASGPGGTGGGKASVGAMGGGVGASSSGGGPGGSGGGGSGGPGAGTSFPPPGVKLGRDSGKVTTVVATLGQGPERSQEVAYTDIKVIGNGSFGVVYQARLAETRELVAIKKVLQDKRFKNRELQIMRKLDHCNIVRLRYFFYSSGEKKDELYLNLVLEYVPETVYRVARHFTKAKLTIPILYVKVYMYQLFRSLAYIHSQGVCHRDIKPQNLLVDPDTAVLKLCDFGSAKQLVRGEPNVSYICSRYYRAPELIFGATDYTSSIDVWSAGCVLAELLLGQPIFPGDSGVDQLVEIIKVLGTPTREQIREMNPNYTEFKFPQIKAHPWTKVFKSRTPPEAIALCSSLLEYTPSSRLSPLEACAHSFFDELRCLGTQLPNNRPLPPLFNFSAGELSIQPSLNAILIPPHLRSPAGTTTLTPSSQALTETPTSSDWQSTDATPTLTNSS
Sequence of RAC-gamma serine/threonine-protein kinase (Q9Y243 whole entry): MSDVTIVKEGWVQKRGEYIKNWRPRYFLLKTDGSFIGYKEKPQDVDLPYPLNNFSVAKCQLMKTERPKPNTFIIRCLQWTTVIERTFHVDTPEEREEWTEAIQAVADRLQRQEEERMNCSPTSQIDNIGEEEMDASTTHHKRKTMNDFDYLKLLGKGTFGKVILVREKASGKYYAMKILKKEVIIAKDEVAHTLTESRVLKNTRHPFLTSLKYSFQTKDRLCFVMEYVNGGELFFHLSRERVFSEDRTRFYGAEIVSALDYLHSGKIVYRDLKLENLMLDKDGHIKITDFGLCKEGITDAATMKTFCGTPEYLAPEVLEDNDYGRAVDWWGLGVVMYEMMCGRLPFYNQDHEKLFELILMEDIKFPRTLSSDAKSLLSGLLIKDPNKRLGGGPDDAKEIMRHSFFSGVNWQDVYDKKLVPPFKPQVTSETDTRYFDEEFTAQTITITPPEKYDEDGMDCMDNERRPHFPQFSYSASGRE
Sequence of Fibroblast growth factor receptor 1 (P11362 whole entry): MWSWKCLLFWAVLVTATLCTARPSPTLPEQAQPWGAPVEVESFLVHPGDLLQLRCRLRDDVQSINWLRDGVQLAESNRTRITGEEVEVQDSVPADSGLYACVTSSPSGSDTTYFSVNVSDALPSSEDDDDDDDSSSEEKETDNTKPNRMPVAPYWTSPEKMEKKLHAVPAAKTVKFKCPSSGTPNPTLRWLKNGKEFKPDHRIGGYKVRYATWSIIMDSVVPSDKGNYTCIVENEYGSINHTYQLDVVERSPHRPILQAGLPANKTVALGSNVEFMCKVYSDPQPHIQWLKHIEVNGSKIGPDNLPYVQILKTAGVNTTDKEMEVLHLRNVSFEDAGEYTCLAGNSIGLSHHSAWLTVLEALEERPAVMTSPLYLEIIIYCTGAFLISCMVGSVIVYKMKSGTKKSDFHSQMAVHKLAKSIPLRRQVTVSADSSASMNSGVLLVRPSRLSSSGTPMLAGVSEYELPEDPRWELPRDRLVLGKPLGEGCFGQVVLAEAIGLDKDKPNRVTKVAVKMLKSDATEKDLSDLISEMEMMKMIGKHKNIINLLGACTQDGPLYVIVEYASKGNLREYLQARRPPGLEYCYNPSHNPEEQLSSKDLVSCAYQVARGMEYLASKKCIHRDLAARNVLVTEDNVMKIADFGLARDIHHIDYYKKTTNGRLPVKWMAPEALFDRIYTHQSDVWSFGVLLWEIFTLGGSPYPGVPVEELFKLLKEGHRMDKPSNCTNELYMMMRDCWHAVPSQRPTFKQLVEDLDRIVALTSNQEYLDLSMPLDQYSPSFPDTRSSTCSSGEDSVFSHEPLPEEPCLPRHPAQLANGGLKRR
Sequence of Tyrosine-protein kinase Lyn (P07948 whole entry): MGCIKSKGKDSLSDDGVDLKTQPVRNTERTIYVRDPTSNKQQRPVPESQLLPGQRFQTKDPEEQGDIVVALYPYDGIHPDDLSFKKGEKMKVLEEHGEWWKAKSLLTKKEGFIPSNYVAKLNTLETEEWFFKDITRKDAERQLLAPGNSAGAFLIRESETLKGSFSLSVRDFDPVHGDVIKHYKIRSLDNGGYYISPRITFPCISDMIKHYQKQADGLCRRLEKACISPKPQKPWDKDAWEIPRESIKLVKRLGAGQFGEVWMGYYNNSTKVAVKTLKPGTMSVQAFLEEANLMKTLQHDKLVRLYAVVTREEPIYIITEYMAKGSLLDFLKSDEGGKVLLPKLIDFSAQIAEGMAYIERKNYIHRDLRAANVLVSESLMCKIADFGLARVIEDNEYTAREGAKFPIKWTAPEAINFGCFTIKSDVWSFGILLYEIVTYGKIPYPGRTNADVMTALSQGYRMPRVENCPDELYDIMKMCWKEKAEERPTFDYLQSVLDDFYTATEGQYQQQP
Sequence of RAC-alpha serine/threonine-protein kinase (P31749 whole entry): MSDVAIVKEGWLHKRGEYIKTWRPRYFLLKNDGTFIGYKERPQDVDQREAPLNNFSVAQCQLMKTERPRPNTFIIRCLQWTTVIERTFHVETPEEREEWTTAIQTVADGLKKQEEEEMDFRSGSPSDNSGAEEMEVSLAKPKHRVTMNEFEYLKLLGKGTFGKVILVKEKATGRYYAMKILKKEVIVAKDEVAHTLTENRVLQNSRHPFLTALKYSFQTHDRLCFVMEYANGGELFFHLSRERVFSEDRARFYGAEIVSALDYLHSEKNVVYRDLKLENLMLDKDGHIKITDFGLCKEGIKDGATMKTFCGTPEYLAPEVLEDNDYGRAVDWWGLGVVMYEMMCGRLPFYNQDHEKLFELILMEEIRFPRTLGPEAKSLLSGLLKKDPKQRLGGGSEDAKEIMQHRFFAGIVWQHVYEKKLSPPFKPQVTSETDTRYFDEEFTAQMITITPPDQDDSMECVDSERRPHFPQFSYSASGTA
Sequence of Cyclin-dependent kinase 5 (Q00535 whole entry): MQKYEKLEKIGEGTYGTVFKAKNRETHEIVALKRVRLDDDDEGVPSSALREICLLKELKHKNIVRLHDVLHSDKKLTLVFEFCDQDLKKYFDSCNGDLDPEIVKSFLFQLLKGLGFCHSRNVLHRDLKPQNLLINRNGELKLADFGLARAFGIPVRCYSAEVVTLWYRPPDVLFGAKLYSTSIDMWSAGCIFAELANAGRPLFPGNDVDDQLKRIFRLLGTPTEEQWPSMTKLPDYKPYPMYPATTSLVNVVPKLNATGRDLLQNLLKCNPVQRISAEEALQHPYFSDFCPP
Sequence of Serine/threonine-protein kinase pim-1 (P11309 whole entry): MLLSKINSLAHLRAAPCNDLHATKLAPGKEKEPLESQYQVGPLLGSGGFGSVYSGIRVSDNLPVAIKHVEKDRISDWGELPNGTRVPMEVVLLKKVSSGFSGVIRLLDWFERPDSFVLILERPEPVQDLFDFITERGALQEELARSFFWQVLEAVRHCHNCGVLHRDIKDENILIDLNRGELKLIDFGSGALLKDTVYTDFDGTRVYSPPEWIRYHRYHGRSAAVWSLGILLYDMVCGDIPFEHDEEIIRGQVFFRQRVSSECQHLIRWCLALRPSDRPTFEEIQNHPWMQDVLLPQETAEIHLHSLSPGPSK
Sequence of 3-phosphoinositide-dependent protein kinase 1 (O15530 whole entry): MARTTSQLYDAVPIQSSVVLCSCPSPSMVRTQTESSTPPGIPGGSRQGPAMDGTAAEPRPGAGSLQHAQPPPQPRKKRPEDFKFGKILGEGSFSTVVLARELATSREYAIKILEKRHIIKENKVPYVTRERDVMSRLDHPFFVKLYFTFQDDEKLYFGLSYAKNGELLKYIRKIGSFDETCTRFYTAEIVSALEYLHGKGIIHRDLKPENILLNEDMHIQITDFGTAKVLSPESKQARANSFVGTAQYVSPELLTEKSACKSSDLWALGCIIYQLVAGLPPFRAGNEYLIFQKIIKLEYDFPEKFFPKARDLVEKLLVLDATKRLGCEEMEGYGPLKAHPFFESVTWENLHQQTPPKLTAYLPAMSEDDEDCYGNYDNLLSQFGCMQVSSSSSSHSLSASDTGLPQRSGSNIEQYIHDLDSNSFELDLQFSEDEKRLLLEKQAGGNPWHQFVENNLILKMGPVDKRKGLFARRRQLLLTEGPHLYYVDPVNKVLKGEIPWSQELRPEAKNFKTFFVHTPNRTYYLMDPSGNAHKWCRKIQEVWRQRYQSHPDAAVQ

SMILES: CCC(C)NC(=O)c1c(N)n(CCCOC)c2nc3ccccc3nc12 (stereo not drawn)
- IC50 [1]: 0.802 µM (active)
- IC50 [2]: 6.15 µM (active)

- Ki [3]: > 1.58 µM (inactive)
- Ki [4]: 0.398 µM (active)
- Ki [5]: 2 µM (active)
- Ki [6]: 0.158 µM (active)
- Ki [7]: > 3.98 µM (inactive)
- Ki [8]: > 5.01 µM (inactive)
- Ki [9]: > 7.94 µM (inactive)
- Ki [10]: 0.398 µM (active)
- Ki [11]: 2 µM (active)
SMILES: CC(=NNC(=N)N)c1cc(NC(=O)NCCCCCCNC(=O)Nc2cc(C(C)=NNC(=N)N)cc(C(C)=NNC(=N)N)c2)cc(C(C)=NNC(=N)N)c1

SMILES: Cc1cc(N)c2cc(NC(=O)/C=C/c3ccccc3Cl)ccc2n1
- EC50 [12]: > 54.7 µM (inactive)
- IC50 [13]: 2.63 µM (active)
